Source: paper PMC11593560 (International Journal of Molecular Sciences, 2024)

Target: T1, CAIX (Homo sapiens, UniProt Q16790)
T1 construct: gene CA9; hCAIX expressed in Xenopus oocytes; with rMCT4 (coexpressed)
Assay: inhibition of CAIX-mediated increase in MCT4 transport (intracellular H+ microelectrodes, Xenopus oocytes)
Format: cell-based

- IC50: 89.9 ± 5.6 nM
Compound: O=C1NS(=O)(=O)c2cc(-n3cc(CCO[C@H]4O[C@@H](CO)[C@@H](O)[C@H](O)[C@@H]4O)nn3)ccc21 [BGal2C, Beta-Galactose-2C]
